According to patent US8551984B2, “Aminopyrimidines as SYK inhibitors” (Merck Sharp & Dohme Corp., priority 2009, dated 2013):
pIC50: −log10 of the molar value.

Biological target: recombinant human SYK (GST-hSYK fusion protein) (Homo sapiens, UniProt P43405)
Assay: biochemical
[1] = rhSYK Activity (IC50), recombinant human GST-SYK 5 pM, ATP 25 μM, biotinylated substrate peptide 250 nM, HTRF, 10-dose titration
[2] = rhSYK Activity, Table 64, first part

Excerpt: Homogeneous Time-Resolved Fluorescence (HTRF) Assay for the Recombinant Human SYK Enzyme:

Cc1cc(Nc2nccc(OCC3CNC3)n2)cc(-c2cnc(C3(O)CCC3)s2)c1 [Example 94A-27]
pIC50 [1]: > 7.00

Cc1cc(Nc2nccc(C(F)(F)F)n2)cc(-c2cnc(C3(N)CCC3)s2)c1 [Example 61B-1, N-{3-[2-(1-aminocyclobutyl)-1,3-thiazol-5-yl]-5-methylphenyl}-4-(trifluoromethyl)pyrimidin-2-amine]
pIC50 (rhSYK Activity, Table 61B): > 7.00

Cc1cc(Nc2ncc(F)cn2)cc(-c2cnc(C(C)(O)C(F)(F)F)s2)c1 (centres unmarked) [Example 100B-2]
pIC50 [1]: > 7.00

CCOC(=O)C1CCC(O)(c2ncc(-c3cc(C)cc(Nc4nccc(OCCOC)n4)c3)s2)CC1C (centres unmarked) [Example 113A-43]
pIC50 (rhSYK Activity, Table 113A): > 7.00

Cc1cc(Nc2nccc(C(F)(F)F)n2)cc(-c2cnc(C(=O)NCc3cncn3C)s2)c1 [Example 87A-14]
pIC50 [1]: > 7.00

Cc1cc(Nc2nccc(C(F)(F)F)n2)cc(-c2cnc(C3CCNC(=O)C3)s2)c1 (centres unmarked) [Example 36B-1]
pIC50 (rhSYK Activity, Table 36B): > 7.00

CCOC(=O)C1CCC(O)(c2ncc(-c3cc(C)cc(Nc4nccc(C)n4)c3)s2)C(C)C1C (centres unmarked) [Example 113A-70]
pIC50 (rhSYK Activity, Table 113A): > 7.00

Cc1cc(Nc2nccc(C(F)(F)F)n2)cc(-c2cnc(C3(NC(N)=O)CCNC(=O)CC3)s2)c1 (centres unmarked) [Example 64-9]
pIC50 [2]: > 7.00

Cc1cc(Nc2nccc(C(F)(F)C(F)(F)F)n2)cc(-c2cnc(C3(O)CCC(C(=O)O)CC3)s2)c1 (centres unmarked) [116A-13]
pIC50 (rhSYK Activity, Table 116A): > 7.00

Cc1cc(Nc2ncc(F)c(C)n2)cc(-c2cnc([C@]3(O)CC[C@@H](C(=O)O)CC3)s2)c1 [116A-2]
pIC50 (rhSYK Activity, Table 116A): > 7.00

Cc1cc(Nc2nccc(C(F)(F)F)n2)cc(-c2cnc(C3(O)CCC(C(=O)O)(c4ccccc4)CC3)s2)c1 (centres unmarked) [Example 33A-9]
pIC50 (rhSYK Activity, Table 33-A): > 7.00

Cc1cc(Nc2nccc(C(F)(F)F)n2)cc(-c2cnc(C3(O)CCCN(C(=O)Cc4c[nH]cn4)CC3)s2)c1 (centres unmarked) [Example 54D-47]
pIC50 (rhSYK Activity, Table 54D): > 7.00

Cc1cc(Nc2nccc(C(F)(F)F)n2)cc(-c2cnc(C3(O)CCN(C(=O)C(N)=O)C3)s2)c1 (centres unmarked) [54B-23]
pIC50 (rhSYK Activity, Table 54B): > 7.00

Cc1cc(Nc2nccc(C(F)(F)F)n2)cc(-c2cnc(C3(O)CCCN(C(=O)Cc4ccccn4)CC3)s2)c1 (centres unmarked) [Example 54D-82]
pIC50 (rhSYK Activity, Table 54D): > 7.00

Cc1cc(Nc2nccc(C(F)(F)F)n2)cc(-c2cnc([C@]3(O)CC[C@@H](NC(=O)c4ccc(C#N)cc4)CC3)s2)c1 [Example 54E-33]
pIC50 (rhSYK Activity, Table 54E): > 7.00

Cc1cc(Nc2ncccn2)cc(-c2cnc(C(C)(O)C(F)(F)F)s2)c1 (centres unmarked) [Example 101, 1,1,1-trifluoro-2-{5-[3-methyl-5-(pyrimidin-2-ylamino)phenyl]-1,3-thiazol-2-yl}propan-2-ol]
pIC50 [1]: 6.00 to 7.00

Cc1cc(Nc2nccc(C(F)(F)F)n2)cc(-c2cnc(C(C)(O)C(F)(F)F)s2)c1 (centres unmarked) [Example 15-4]
pIC50 (rhSYK Activity, Table 15): > 7.00

Cc1cc(Nc2nccc(C(F)(F)F)n2)cc(-c2cnc(CNCC(N)=O)s2)c1 [Example 88A-22]
pIC50 [1]: > 7.00

Cc1cc(Nc2ncc(F)c(C3CC3)n2)cc(-c2cnc(C3(O)CCC(C(=O)O)C(C)(C)C3)s2)c1 (centres unmarked) [Example 113A-57]
pIC50 (rhSYK Activity, Table 113A): > 7.00

Cc1cc(Nc2nccc(C(F)(F)F)n2)cc(-c2cnc(C(NS(C)(=O)=O)(C3CC3)C3CC3)s2)c1 [61A-1]
pIC50 (rhSYK Activity, Table 61A): > 7.00

Cc1cc(Nc2nccc(C(F)(F)F)n2)cc(-c2cnc(C3(O)CCCN(C(=O)Cn4cncn4)CC3)s2)c1 (centres unmarked) [Example 54D-49]
pIC50 (rhSYK Activity, Table 54D): > 7.00

Cc1cc(Nc2nccc(C(F)(F)F)n2)cc(-c2cnc(CNC(C)(C)CC(C)O)s2)c1 (centres unmarked) [Example 88A-45]
pIC50 [1]: > 7.00

Cc1cc(Nc2nccc(C(F)(F)F)n2)cc(-c2cnc(C(C)(C)S(=O)(=O)NCC(=O)O)s2)c1 [74A-15]
pIC50 (rhSYK Activity, Table 74A): > 7.00

Cc1cc(Nc2nccc(C3CC3)n2)cc(-c2cnc(C3(NC(N)=O)CCC3)s2)c1 [Example 64-2]
pIC50 [2]: > 7.00

Cc1cc(Nc2nccc(C(F)(F)F)n2)cc(-c2cnc(-c3ccsc3)s2)c1 [Example 114-6]
pIC50 [1]: 6.00 to 7.00

Cc1cc(Nc2nccc(C(F)(F)F)n2)cc(-c2cnc(C(=O)NCC(C)(C)O)s2)c1 [Example 87A-11]
pIC50 [1]: > 7.00

Cc1cc(Nc2nccc(OC(C)C)n2)cc(-c2cnc([C@]3(O)CC[C@@H](C(=O)O)[C@@H](C)C3)s2)c1 [Example 113A-35]
pIC50 (rhSYK Activity, Table 113A): > 7.00

CC(=O)Oc1ccc(C(=O)N2CCCC(O)(c3ncc(-c4cc(C)cc(Nc5nccc(C(F)(F)F)n5)c4)s3)CC2)cc1 (centres unmarked) [Example 54D-106]
pIC50 (rhSYK Activity, Table 54D): > 7.00

Cc1cc(Nc2nccc(C(F)(F)F)n2)cc(-c2cnc(C(=O)N3CCN(C)C(=O)C3)s2)c1 [Example 87B-4]
pIC50 [1]: > 7.00

Cc1cc(Nc2nccc(C(F)(F)F)n2)cc(-c2cnc(C3(O)CCN(C4CCC(C(=O)O)C4)C3)s2)c1 (centres unmarked) [54B-32]
pIC50 (rhSYK Activity, Table 54B): > 7.00

COC(=O)C(=O)N1CCC(O)(c2ncc(-c3cc(C)cc(Nc4nccc(C(F)(F)F)n4)c3)s2)C1 (centres unmarked) [54B-27]
pIC50 (rhSYK Activity, Table 54B): > 7.00

Cc1cc(Nc2nccc(C(F)(F)F)n2)cc(-c2cnc(C(=O)N(C)CCO)s2)c1 [Example 87A-6]
pIC50 [1]: > 7.00

Cc1cc(Nc2nccc(C(F)(F)F)n2)cc(-c2cnc(C3(O)CCN(C(=O)C(=O)O)C3)s2)c1 (centres unmarked) [54B-25]
pIC50 (rhSYK Activity, Table 54B): > 7.00

Cc1cc(Nc2nccc(C)n2)cc(-c2cnc(C3(O)CCC3)s2)c1 [Example 100A-2]
pIC50 [1]: > 7.00

Cc1cc(Nc2nccc(C(F)(F)F)n2)cc(-c2cnc(C3(O)CCCN(S(=O)(=O)O)CC3)s2)c1 (centres unmarked) [Example 54D-118]
pIC50 (rhSYK Activity, Table 54D): > 7.00

CCOC(=O)C1CC(C)C(O)(c2ncc(-c3cc(C)cc(Nc4nccc(C)n4)c3)s2)CC1C (centres unmarked) [Example 113B-7]
pIC50 (rhSYK Activity, Table 113B): > 7.00

Cc1cc(Nc2nccc(C(F)(F)F)n2)cc(-c2cnc(C3(O)CCCN(C(=O)CCO)CC3)s2)c1 (centres unmarked) [Example 54D-13]
pIC50 (rhSYK Activity, Table 54D): > 7.00

Cc1cc(Nc2nccc(C(F)(F)F)n2)cc(-c2cnc(C3(O)CCCN(C(=O)CCC(=O)O)CC3)s2)c1 (centres unmarked) [Example 54D-43]
pIC50 (rhSYK Activity, Table 54D): > 7.00

COC(=O)[C@H]1CC[C@H](c2ncc(-c3cccc(Nc4nccc(C(F)(F)F)n4)c3)s2)CC1 [Example 21-11, methyl trans-4-[5-(3-{[4-(trifluoromethyl)pyrimidin-2-yl]amino}phenyl)-1,3-thiazol-2-yl]cyclohexanecarboxylate]
pIC50 (rhSYK Activity, Table 21): 6.00 to 7.00

Cc1cc(Nc2nccc(OCCNC3CCN(C)CC3)n2)cc(-c2cnc(C3(O)CCC3)s2)c1 [Example 108A-14]
pIC50 (rhSYK Activity, Table 108A): 6.00 to 7.00

Cc1cc(Nc2nccc(C(F)(F)F)n2)cc(-c2cnc(C3(O)CCCC(C(=O)O)C(C)(C)C3)s2)c1 (centres unmarked) [Example 33B-11]
pIC50 (rhSYK Activity, Table 33B): > 7.00

Cc1cc(Nc2nccc(C)n2)cc(-c2cnc(C3(O)CCN(C(N)=O)C3)s2)c1 (centres unmarked) [54B-13]
pIC50 (rhSYK Activity, Table 54B): > 7.00

Cc1cc(Nc2nccc(C(F)(F)F)n2)cc(-c2cnc(C3(O)CCCN(C(=O)Cn4ccnn4)CC3)s2)c1 (single isomer, unassigned) [Example 54D-52]
pIC50 (rhSYK Activity, Table 54D): > 7.00

Cc1cc(Nc2nccc(C(F)(F)F)n2)cc(-c2cnc(C3(O)CCC(C(=O)O)CC3C)s2)c1 (centres unmarked) [Example 113A-88]
pIC50 (rhSYK Activity, Table 113A): > 7.00

Cc1cc(Nc2nccc(OCc3c[nH]cn3)n2)cc(-c2cnc(C3(O)CCC3)s2)c1 [Example 108A-2]
pIC50 (rhSYK Activity, Table 108A): > 7.00

COC(=O)C1CCC(O)(c2ncc(-c3cc(C)cc(Nc4nccc(C)n4)c3)s2)CC1C (centres unmarked) [Example 113A-12]
pIC50 (rhSYK Activity, Table 113A): 6.00 to 7.00

O=C(O)[C@H]1CC[C@@](O)(c2ncc(-c3cccc(Nc4nccc(C(F)(F)F)n4)c3)s2)CC1 [Example 33A-23]
pIC50 (rhSYK Activity, Table 33-A): > 7.00

Cc1cc(Nc2nccc(C(C)(C)O)n2)cc(-c2cnc(C3(O)CCC(C(=O)O)C(C)(C)C3)s2)c1 (centres unmarked) [Example 100A-17]
pIC50 [1]: > 7.00

Cc1cc(Nc2nccc(C=CC(C)(C)O)n2)cc(-c2cnc(C3(O)CCC(C(=O)O)C(C)(C)C3)s2)c1 (centres unmarked) [Example 100A-23]
pIC50 [1]: > 7.00

Cc1cc(Nc2nccc(C(F)(F)F)n2)cc(-c2cnc(C(C)(O)CCC(C)(C)C(=O)O)s2)c1 (centres unmarked) [Example 33D-1]
pIC50 (rhSYK Activity, Table 33D): > 7.00

Cc1cc(Nc2nccc(C(F)(F)F)n2)cc(-c2cnc(-c3cnn(C(CCO)C(=O)O)c3)s2)c1 (centres unmarked) [Example 115-6]
pIC50 (rhSYK Activity, Table 115): > 7.00

Cc1cc(Nc2ncc(F)c(C3CC3)n2)cc(-c2cnc(C3(NC(N)=O)CCC3)s2)c1 [Example 64-6]
pIC50 [2]: > 7.00

CCOC(=O)C1CC(C)C(O)(c2ncc(-c3cc(C)cc(Nc4nccc(C)n4)c3)s2)CC1C (centres unmarked) [Example 113B-9]
pIC50 (rhSYK Activity, Table 113B): > 7.00

CC(=O)Nc1cc(Nc2nccc(OC3CCOCC3)n2)cc(-c2cnc(C3(O)CCC3)s2)c1 [Example 109-8]
pIC50 (rhSYK Activity, Table 109): > 7.00

CCN(Cc1ncc(-c2cc(C)cc(Nc3nccc(C(F)(F)F)n3)c2)s1)C1CS(=O)(=O)CC1O (centres unmarked) [Example 88A-58]
pIC50 [1]: > 7.00

COc1nc(Nc2cc(C)cc(-c3cnc(C(C)(C)S(N)(=O)=O)s3)c2)ncc1F [74A-8]
pIC50 (rhSYK Activity, Table 74A): > 7.00

COC(=O)C1CCC(O)(c2ncc(-c3cc(C)cc(Nc4ncc(Cl)c(C)n4)c3)s2)CC1(C)C (centres unmarked) [116A-34]
pIC50 (rhSYK Activity, Table 116A): 6.00 to 7.00

CCOC(=O)C1CC(C)C(O)(c2ncc(-c3cc(C)cc(Nc4nccc(C(F)(F)F)n4)c3)s2)C(C)C1 (centres unmarked) [Example 113B-31]
pIC50 (rhSYK Activity, Table 113B): > 7.00

Cc1cc(Nc2nccc(C(F)(F)F)n2)cc(-c2cnc(C3(O)CCN(C(=O)CS(C)(=O)=O)CC3)s2)c1 [Example 54A-47]
pIC50 (RHSYK Activity, Table 54A): > 7.00

Cc1cc(Nc2nccc(O[C@H]3CCOC3)n2)cc(-c2cnc(C3(O)CCC3)s2)c1 [Example 94A-10]
pIC50 [1]: > 7.00

Cc1cc(Nc2nccc(C(F)(F)F)n2)cc(-c2cnc(C(C)(C)N)s2)c1 [61A-3]
pIC50 (rhSYK Activity, Table 61A): > 7.00

Cc1cc(Nc2nccc(C(F)(F)F)n2)cc(-c2cnc(C3CCNC(=O)CC3)s2)c1 (centres unmarked) [Example 36B-4]
pIC50 (rhSYK Activity, Table 36B): > 7.00

Cc1cc(Nc2nccc(C(F)(F)F)n2)cc(-c2cnc(C3(O)CCCN(C(=O)c4ccccc4)CC3)s2)c1 (centres unmarked) [Example 54D-45]
pIC50 (rhSYK Activity, Table 54D): > 7.00

COC(=O)CCC(=O)N1CCCC(O)(c2ncc(-c3cc(C)cc(Nc4nccc(C(F)(F)F)n4)c3)s2)CC1 (centres unmarked) [Example 54D-72]
pIC50 (rhSYK Activity, Table 54D): > 7.00

COc1nc(Nc2cc(C)cc(-c3cnc(C4(O)CCC(C(=O)O)CC4)s3)c2)ncc1Cl (centres unmarked) [116A-8]
pIC50 (rhSYK Activity, Table 116A): > 7.00
